From PubChem BioAssay (NCI)
“And” between values parts separate entries of the source, which are not always exact repeats. Equal entries are not always repeated.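 Exposure lasted 48 hours, with cells grown in 96-well plates and compounds tested at five concentrations. GI50 is the concentration that inhibits growth by half. TGI denotes the concentration required for complete inhibition of growth.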

Columns and labels:
Assay in all cases: growth of human tumour cells (NCI), 48 h
MDA-MB-435 = test system: MDA-MB-435
PC-3 prostate = test system: PC-3 prostate
HS 578T breast = test system: HS 578T breast
BT-549 breast = test system: BT-549 breast
HOP-18 NSCLC = test system: HOP-18 NSCLC
DMS 114 small cell lung = test system: DMS 114 small cell lung
MDA-N = test system: MDA-N
XF 498 CNS = test system: XF 498 CNS
RXF-631 renal = test system: RXF-631 renal

Structure (SMILES)	GI50 (MDA-MB-435)	TGI (MDA-MB-435)	GI50 (PC-3 prostate)	TGI (PC-3 prostate)	GI50 (HS 578T breast)	TGI (HS 578T breast)	GI50 (BT-549 breast)	TGI (BT-549 breast)	TGI (HOP-18 NSCLC)	TGI (DMS 114 small cell lung)	TGI (MDA-N)	GI50 (MDA-N)	TGI (XF 498 CNS)	TGI (RXF-631 renal)	GI50 (DMS 114 small cell lung)	GI50 (HOP-18 NSCLC)
CN1C(=O)N(C)C2C1NN=c1s/c(=C\c3ccc(F)cc3)c(=O)n12 (stereo not drawn)	0.361 µM	1.71 µM	2.33 µM	> 100 µM	2.08 µM	7.31 µM	13.1 µM	> 100 µM								
O=C(N/N=C(/CCN1CCCC1)CC(c1ccccc1)c1c(O)c2ccccc2oc1=O)c1ccncc1 (stereo not drawn)									> 100 µM							
NCCCCNc1ccc2c(=O)[nH][nH]c(=O)c2c1									> 100 µM	> 100 µM						
Nc1ccccc1C#C/C=C\C#Cc1ccccc1[N+](=O)[O-]	0.402 µM	14.1 µM	6.82 µM	> 100 µM	4.99 µM	> 100 µM	4.66 µM	22.6 µM								
Cc1ccc(-c2csc(NC(=O)CN3CCN(c4cc5c(cc4F)c(=O)c(C(=O)O)cn5C4CC4)CC3)n2)cc1	1.77 µM	> 100 µM	0.504 µM	> 100 µM	0.749 µM	31.7 µM	0.358 µM	10.7 µM								
Cc1cccc(C)c1NC(=O)C1C(=O)N(c2c(C)cccc2C)C(=O)/C1=N\NC(N)=S (stereo not drawn)									> 100 µM	> 100 µM						
CC1C(=O)OCC2=CCN3CCC(OC(=O)C(C)C1(C)O)C23 (stereo not drawn)		> 100 µM		> 100 µM		> 100 µM		> 100 µM			> 100 µM					
COc1ccc2c(c1)/C(=C\c1c(Cl)[nH]c3ccc(OC)cc13)C(=O)N2	33.7 µM	> 100 µM	48.9 µM	> 100 µM	29.9 µM	81.2 µM	28.8 µM	> 100 µM								
CCCOc1ccc2nc(NC(=O)OC)[nH]c2c1	0.0284 µM	0.11 µM	0.269 µM	> 100 µM	0.342 µM	> 100 µM	1.06 µM	> 100 µM								
NC(N)=NCCC1OC(=O)C2=C1c1c(O)ccc3nccc(c13)O2 (stereo not drawn)	> 100 µM	> 100 µM	> 100 µM	> 100 µM	> 100 µM	> 100 µM					> 100 µM	> 100 µM				
COC(=O)[C@]12CCC(C)[C@H](C)[C@H]1C1=CCC3[C@@]4(C)CC[C@H](OC(C)=O)C(C)(C)C4CC[C@@]3(C)C1(C)C(O)C2 (stereo partly drawn)									> 100 µM	> 100 µM			> 100 µM			
CCOc1cccc(/C=N/NC(=O)C(=O)Nc2cccc(C(F)(F)F)c2)c1O	4.16 µM	> 100 µM	1.95 µM	> 100 µM	12 µM	> 100 µM	5.36 µM	> 100 µM								
C=CC(=O)Nc1cc2c(Nc3ccc(F)c(Cl)c3)ncnc2cc1OCCCN1CCOCC1	2.67 µM and 4.1 µM	12 µM and > 10 µM	2.76 µM and 4.33 µM	9.85 µM and > 10 µM	2.05 µM and 2.21 µM	7.21 µM and > 10 µM	2.04 µM and 2.57 µM	5.7 µM and > 7.88 µM								
COc1cc2c(=O)n(CCN)c3c4cc5c(cc4ccc3c2cc1OC)OCO5	0.894 µM	2.29 µM	0.591 µM	2.27 µM	2.8 µM	11.7 µM	1.06 µM	2.7 µM								
Cc1[nH]nc(C(=O)n2nc(N)c3ccccc32)c1[N+](=O)[O-]	> 100 µM	> 100 µM	> 100 µM	> 100 µM	> 100 µM	> 100 µM	> 90.8 µM	> 100 µM								
Cc1cc(C)c(C(=O)c2no[n+]([O-])c2C(=O)c2c(C)cc(C)c(Br)c2C)c(C)c1Br										23.4 µM				35.7 µM		
COc1ccc(C2=NN(C=O)C(c3cccc(Nc4ccnc5cc(Cl)ccc45)c3)C2)cc1 (stereo not drawn)	0.37 µM	13.1 µM	2.87 µM	> 100 µM	3.92 µM	39.4 µM	1.93 µM	9.87 µM								
CCOC(=O)c1cc(/C=C/C(C)=C/C(=O)OC)oc1C										> 100 µM			> 100 µM			
COc1ccc2cc(-c3c(-c4ccncc4)nc(-c4ccc(S(C)(=O)=O)cc4C)n3C)ccc2c1	9.18 µM	> 25 µM	8.35 µM	> 25 µM	5.24 µM	> 25 µM	10.6 µM	> 25 µM								
COc1ccc(-c2oc3c(OC)c(OC)c(OC)c(OC)c3c(=O)c2OC)cc1OC		98.7 µM		> 100 µM		56.3 µM		> 100 µM			> 100 µM					
O=C1c2cc(Cl)ccc2-c2c1c1ccc([N+](=O)[O-])cc1c(=O)n2CCCBr	14.9 µM	> 100 µM	19.2 µM	> 100 µM	> 100 µM	> 100 µM	34.2 µM	> 100 µM								
Cc1cc2c(cc1Cl)SC1=NN(C)C(N(C)C)N1S2(=O)=O (stereo not drawn)	> 100 µM	> 100 µM	> 100 µM	> 100 µM	> 100 µM	> 100 µM	> 100 µM	> 100 µM								
CC(CCC(=O)O)C(=O)O (stereo not drawn)		> 100 µM		> 100 µM		> 100 µM		> 100 µM			> 100 µM					
CCn1c2ccc(O)cc2c2c(C)c3c[n+](C)ccc3c(C)c21	9.17 µM	50.9 µM	15.2 µM	> 100 µM	0.509 µM	4.98 µM	1.55 µM	8.29 µM								
O=C(O)C1CCCCC1C(=O)O.[NH-]C1CCC1.[NH2-].[Pt+2] (stereo not drawn)	15.7 µM	29.3 µM	> 100 µM	> 100 µM	19.3 µM	57 µM	19.8 µM	77.9 µM								
NC(=S)NNc1c([N+](=O)[O-])cnn(-c2ccccc2)c1=O										33.2 µM			32.6 µM			
CN(C)CCCNC(=O)c1ccc2c(c1)oc1cc3ccccc3c(=O)n12	19.1 µM	> 50 µM	31.7 µM	> 50 µM			12.7 µM	26.5 µM								
CC[O-].CC[O-].O=S(=O)([O-])c1ccc([O-])c2ncccc12.O=S(=O)([O-])c1ccc([O-])c2ncccc12.[Ti+4]									> 100 µM	> 100 µM					74.7 µM	> 100 µM
Nc1ccccc1C#C/C=C\C#Cc1ccccc1	2.64 µM	6.31 µM	12.3 µM	54.1 µM			3.29 µM	16.3 µM								
